# Measurements as given in patent publication US12441726B2, “Compounds and uses thereof” (Foghorn Therapeutics Inc., priority 2020, dated 2025).
# Key:
# BRM = BRM (Homo sapiens, UniProt P51531); assay: ATPase catalytic activity assay (ADP-Glo), BRM; conditions: 30 nM BRM, 400 μM ATP; for IC50: BRM ATPase: IC50 (uM)
# BRG-1 = BRG-1 (Homo sapiens, UniProt P51532); assay: ATPase catalytic activity assay (ADP-Glo), BRG-1; conditions: for Emax: 1 h, read-out: BRG1 Max % Inhibition, ADP-Glo, 30 nM BRG-1, 400 μM ATP
# Sequence of BRG-1 (P51532 whole entry): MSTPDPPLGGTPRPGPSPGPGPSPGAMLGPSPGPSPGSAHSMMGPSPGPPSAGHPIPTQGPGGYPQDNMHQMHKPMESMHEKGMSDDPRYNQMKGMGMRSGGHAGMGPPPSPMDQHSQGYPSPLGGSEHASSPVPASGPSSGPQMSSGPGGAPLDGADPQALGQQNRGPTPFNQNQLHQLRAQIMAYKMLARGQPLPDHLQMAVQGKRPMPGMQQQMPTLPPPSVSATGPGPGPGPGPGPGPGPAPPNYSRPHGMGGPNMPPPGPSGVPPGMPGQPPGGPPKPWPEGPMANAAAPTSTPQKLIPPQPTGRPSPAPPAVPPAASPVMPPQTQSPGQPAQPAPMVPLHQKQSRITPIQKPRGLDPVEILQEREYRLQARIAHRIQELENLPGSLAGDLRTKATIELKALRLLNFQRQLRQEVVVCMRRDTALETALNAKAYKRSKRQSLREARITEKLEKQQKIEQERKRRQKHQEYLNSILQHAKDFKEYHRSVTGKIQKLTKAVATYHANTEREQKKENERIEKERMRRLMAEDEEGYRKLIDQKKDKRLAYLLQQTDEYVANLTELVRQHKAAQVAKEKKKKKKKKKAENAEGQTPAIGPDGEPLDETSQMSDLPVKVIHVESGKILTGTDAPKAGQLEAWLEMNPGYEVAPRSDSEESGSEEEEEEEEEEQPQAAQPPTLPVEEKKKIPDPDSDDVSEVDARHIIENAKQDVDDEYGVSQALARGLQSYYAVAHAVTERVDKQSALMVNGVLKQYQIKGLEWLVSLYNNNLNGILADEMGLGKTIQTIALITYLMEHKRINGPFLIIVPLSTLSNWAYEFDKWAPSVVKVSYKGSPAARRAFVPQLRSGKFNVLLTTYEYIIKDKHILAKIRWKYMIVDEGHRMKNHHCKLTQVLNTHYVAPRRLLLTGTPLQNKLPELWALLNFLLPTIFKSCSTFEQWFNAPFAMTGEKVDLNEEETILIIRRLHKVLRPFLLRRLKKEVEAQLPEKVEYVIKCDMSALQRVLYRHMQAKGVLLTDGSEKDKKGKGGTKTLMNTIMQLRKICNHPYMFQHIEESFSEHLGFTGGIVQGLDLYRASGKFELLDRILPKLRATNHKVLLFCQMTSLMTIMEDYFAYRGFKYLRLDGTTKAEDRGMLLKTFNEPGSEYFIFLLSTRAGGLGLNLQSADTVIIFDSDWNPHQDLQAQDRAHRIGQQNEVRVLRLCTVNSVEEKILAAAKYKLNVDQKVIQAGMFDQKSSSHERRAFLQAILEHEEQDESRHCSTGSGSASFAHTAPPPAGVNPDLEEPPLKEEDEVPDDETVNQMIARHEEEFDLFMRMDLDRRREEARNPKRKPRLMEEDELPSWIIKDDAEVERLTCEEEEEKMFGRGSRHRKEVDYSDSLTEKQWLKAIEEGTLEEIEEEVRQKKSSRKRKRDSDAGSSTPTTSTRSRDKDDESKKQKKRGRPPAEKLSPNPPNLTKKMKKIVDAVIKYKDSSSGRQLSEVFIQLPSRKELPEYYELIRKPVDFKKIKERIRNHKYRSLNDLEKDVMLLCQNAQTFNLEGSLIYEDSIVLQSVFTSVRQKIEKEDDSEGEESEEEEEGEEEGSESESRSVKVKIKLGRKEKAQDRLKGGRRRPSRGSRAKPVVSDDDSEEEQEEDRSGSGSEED
# Sequence of BRM (P51531 whole entry): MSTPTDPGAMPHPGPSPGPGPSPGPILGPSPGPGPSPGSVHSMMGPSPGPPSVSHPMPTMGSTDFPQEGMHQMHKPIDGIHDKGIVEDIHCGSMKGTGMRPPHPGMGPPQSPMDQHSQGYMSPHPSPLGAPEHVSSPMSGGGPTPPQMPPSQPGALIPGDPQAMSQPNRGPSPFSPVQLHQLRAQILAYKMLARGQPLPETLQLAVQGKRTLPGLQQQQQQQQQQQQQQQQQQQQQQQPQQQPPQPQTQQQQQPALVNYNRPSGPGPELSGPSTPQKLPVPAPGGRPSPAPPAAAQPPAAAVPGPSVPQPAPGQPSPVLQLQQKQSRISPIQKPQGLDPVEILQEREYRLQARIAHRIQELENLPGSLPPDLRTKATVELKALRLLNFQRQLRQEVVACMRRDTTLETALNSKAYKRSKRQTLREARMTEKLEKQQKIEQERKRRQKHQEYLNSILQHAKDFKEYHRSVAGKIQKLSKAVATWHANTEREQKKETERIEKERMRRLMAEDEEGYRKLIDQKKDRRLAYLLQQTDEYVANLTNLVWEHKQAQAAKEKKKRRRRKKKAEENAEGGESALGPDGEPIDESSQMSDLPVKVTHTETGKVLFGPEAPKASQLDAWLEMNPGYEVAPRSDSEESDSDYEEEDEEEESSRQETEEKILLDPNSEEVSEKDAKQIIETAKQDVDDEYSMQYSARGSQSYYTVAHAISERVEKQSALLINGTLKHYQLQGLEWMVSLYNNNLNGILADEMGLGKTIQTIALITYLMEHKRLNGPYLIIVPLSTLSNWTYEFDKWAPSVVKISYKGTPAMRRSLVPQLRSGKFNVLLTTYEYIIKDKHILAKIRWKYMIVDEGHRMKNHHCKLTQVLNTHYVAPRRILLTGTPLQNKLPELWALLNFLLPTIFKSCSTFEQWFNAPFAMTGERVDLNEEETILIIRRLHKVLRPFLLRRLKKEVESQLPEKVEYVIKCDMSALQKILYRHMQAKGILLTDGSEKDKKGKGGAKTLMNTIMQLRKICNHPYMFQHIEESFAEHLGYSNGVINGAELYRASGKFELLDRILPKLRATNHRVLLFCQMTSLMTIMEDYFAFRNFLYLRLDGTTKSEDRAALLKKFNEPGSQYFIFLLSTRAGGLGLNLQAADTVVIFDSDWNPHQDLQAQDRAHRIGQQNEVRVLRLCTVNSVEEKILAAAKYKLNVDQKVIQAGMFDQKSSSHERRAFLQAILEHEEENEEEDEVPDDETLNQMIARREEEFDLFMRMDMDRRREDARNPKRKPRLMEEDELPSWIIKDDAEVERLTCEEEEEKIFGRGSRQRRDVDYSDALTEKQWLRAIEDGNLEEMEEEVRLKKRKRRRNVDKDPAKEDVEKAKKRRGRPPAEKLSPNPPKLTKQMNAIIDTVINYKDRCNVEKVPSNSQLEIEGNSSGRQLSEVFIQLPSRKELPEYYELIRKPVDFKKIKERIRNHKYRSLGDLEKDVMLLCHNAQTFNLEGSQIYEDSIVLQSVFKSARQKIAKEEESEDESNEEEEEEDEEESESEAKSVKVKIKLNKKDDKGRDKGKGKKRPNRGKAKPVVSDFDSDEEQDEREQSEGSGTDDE
Compound,BRM Max % Inhibition (BRM) [%],IC50 (BRM) [µM],IC50 (BRG-1) [nM],Emax (BRG-1) [%]
Cn1ccc2ccc(-c3ccc4cnc(CNC(=O)c5ccc6c(c5)[C@](C)(C#N)COC6)cc4n3)nc2c1=O [Compound 196],86,0.1 to 0.5,> 1000,59
COCCN1CCN(c2cccc(-c3ccc4cnc(CNC(=O)c5ccc6c(c5)[C@](C)(C#N)COC6)cc4n3)n2)CC1 [Compound 132],97,0.1 to 0.5,500 to 1000,71
COc1cncc(-c2ccc3cnc(CNC(=O)c4ccc5c(c4)[C@](C)(C#N)COC5)cc3n2)c1 [Compound 482],90,0.1 to 0.5,500 to 1000,55
C[C@@]1(C#N)COCc2ccc(C(=O)NCc3cc4cc(-c5ccnc(C6CC6)n5)cnc4cn3)cc21 [Compound 337],99,0.1 to 0.5,500 to 1000,63
C[C@@]1(F)COCc2ccc(C(=O)NCc3cc4nc(-c5ccnc(C6CC6)n5)cnc4cn3)cc21 [Compound 191],97,< 0.1,500 to 1000,76
C[C@@]1(C#N)COCc2ccc(C(=O)NCc3cc4nc(-c5ccccn5)sc4cn3)cc21 [Compound 440],88,0.1 to 0.5,> 1000,40
C[C@@]1(C#N)COCc2ccc(C(=O)NCc3cc4nc(-c5ccnc(N6CCC6)n5)sc4cn3)cc21 [Compound 348],99,< 0.1,500 to 1000,72
O=C(NCc1cc2nc(-c3ccccc3)ccc2cn1)c1ccc2c(c1)[C@@](F)(C(F)F)COC2 [Compound 525],97,0.1 to 0.5,500 to 1000,69
C[C@@]1(C#N)COCc2ccc(C(=O)NCc3cc4nc(-c5ccnc([C@H]6CC6(F)F)n5)ccc4cn3)cc21 [Compound 217],98,< 0.1,500 to 1000,79
C[C@H](NC(=O)c1ccc2c(c1)[C@](C)(C#N)COC2)c1cc2nc(-c3ccccc3)ccc2cn1 [Compound 87],88,0.5 to 1,> 1000,87
Cn1nc(-c2ccc3cnc(CNC(=O)c4ccc5c(c4)[C@](C)(C#N)COC5)cc3n2)cc1C(F)F [Compound 162],91,0.1 to 0.5,500 to 1000,59
C[C@@]1(C#N)COCc2ccc(C(=O)NCc3cc4nc(-c5cncc(N6CCCC6)n5)ccc4cn3)cc21 [Compound 415],99,< 0.1,< 100,95
C[C@@]1(C#N)COCc2ncc(C(=O)NCc3cc4nc(-c5cccc(C6CC6)n5)ccc4cn3)cc21 [Compound 208],98,< 0.1,100 to 500,92
CC(F)(F)c1cncc(-c2ccc3cnc(CNC(=O)c4ccc5c(c4)[C@](C)(C#N)COC5)cc3n2)n1 [Compound 299],99,< 0.1,500 to 1000,78
CCOC(=O)C12CCC(CC1)N(c1ccc3cnc(CNC(=O)c4ccc5c(c4)[C@](C)(C#N)COC5)cc3n1)C2 [Compound 502],89,0.1 to 0.5,500 to 1000,70
CNC(=O)c1cccc(-c2ccc3cnc(CNC(=O)c4ccc5c(c4)[C@](C)(C#N)COC5)cc3n2)c1F [Compound 460],98,0.1 to 0.5,500 to 1000,75
COc1ccc(C)cc1-c1ccc2cnc(CNC(=O)c3ccc4c(c3)[C@](C)(C#N)COC4)cc2n1 [Compound 153],87,0.1 to 0.5,> 1000,37
Cn1cc2c(n1)CCN(c1ccc3cnc(CNC(=O)c4ccc5c(c4)[C@](C)(C#N)COC5)cc3n1)C2 [Compound 455],94,0.1 to 0.5,500 to 1000,75
Cc1cc(-c2ccc3cnc(CNC(=O)c4ccc5c(c4)[C@](C)(C#N)COC5)cc3n2)on1 [Compound 231],91,0.1 to 0.5,> 1000,46
COC1CN(C(=O)c2cccc(-c3ccc4cnc(CNC(=O)c5ccc6c(c5)[C@](C)(C#N)COC6)cc4n3)c2)C1 [Compound 445],96,0.1 to 0.5,500 to 1000,72
[2H]C1([2H])OC[C@@](C)(F)c2cc(C(=O)NCc3cc4nc(-c5cncc(C6CC6)n5)ccc4cn3)cnc21 [Compound 211],97,0.1 to 0.5,500 to 1000,82
COc1c(-c2ccc3cnc(CNC(=O)c4ccc5c(c4)[C@](C)(C#N)COC5)cc3n2)cnn1C(F)F [Compound 184],94,0.1 to 0.5,500 to 1000,67
Cc1nn(-c2ccc3cnc(CNC(=O)c4ccc5c(c4)[C@](C)(C#N)COC5)cc3n2)cc1F [Compound 433],96,0.1 to 0.5,500 to 1000,59
C[C@@]1(C#N)COCc2ccc(C(=O)NCc3cc4nc(-c5cncc(N6CCC6)n5)sc4cn3)cc21 [Compound 353],93,< 0.1,100 to 500,82
COC(=O)c1cccc(C#Cc2ccnc(CNC(=O)c3ccc4c(c3)[C@](C)(C#N)CCO4)c2)c1 [Compound 24],94,0.1 to 0.5,> 1000,65
O=C(NCc1cc2nc(-c3cncc(C4CC4)n3)ccc2cn1)c1cc(F)c2c(c1)[C@](F)(C(F)F)COC2 [Compound 237],100,< 0.1,100 to 500,92
C[C@@]1(C#N)COCc2ncc(C(=O)NCc3cc4nc(-c5cc(F)cc(N6CCC6)c5)ccc4cn3)cc21 [Compound 487],100,< 0.1,100 to 500,95
C[C@]1(C#N)CCOc2ncc(C(=O)NCc3cc4nc(-c5cncc(C6CC6)n5)ccc4cn3)cc21 [Compound 253],92,0.1 to 0.5,500 to 1000,57
COc1c(-c2ccc3cnc(CNC(=O)c4ccc5c(c4)[C@](C)(C#N)COC5)cc3n2)ccc2cnn(C)c12 [Compound 491],98,0.1 to 0.5,500 to 1000,76

# Now from value to compound:
BRM Max % Inhibition (BRM) [%],IC50 (BRM) [µM],IC50 (BRG-1) [nM],Emax (BRG-1) [%],Compound
87,0.1 to 0.5,> 1000,36,C[C@@]1(C#N)COCc2ccc(C(=O)NCc3cc(OCc4ccc(C#N)cc4)ccn3)cc21 [Compound 64]
96,0.1 to 0.5,> 1000,72,C[C@@]1(C#N)COCc2ccc(C(=O)NCc3cc4nc(-n5cccn5)ccc4cn3)cc21 [Compound 473]
81,0.1 to 0.5,> 1000,42,C[C@@]1(C#N)COCc2ccc(C(=O)NCc3cc(N4CCC(O)(c5ccccc5)C4)ccn3)cc21 (stereo partly shown) [Compound 54]
92,0.1 to 0.5,500 to 1000,50,COC1(c2ccccc2)CCN(c2ccnc(CNC(=O)c3ccc4c(c3)[C@](C)(C#N)COC4)c2)C1 (stereo partly shown) [Compound 58]
96,0.1 to 0.5,100 to 500,87,C[C@@]1(C#N)COCc2ccc(C(=O)NCc3cc4nc(N5Cc6ccccc6C5=O)ccc4cn3)cc21 [Compound 303]
96,0.1 to 0.5,> 1000,74,C[C@@]1(C#N)COCc2ccc(C(=O)NCc3cc4cc(-c5ccccc5)ccc4cn3)cc21 [Compound 123]
94,0.1 to 0.5,> 1000,68,C[C@@]1(C#N)COCc2ccc(C(=O)NCc3cc(CCc4ccccc4)ccn3)cc21 [Compound 25]
89,0.1 to 0.5,500 to 1000,53,CN(C)C(=O)c1cccc(C#Cc2ccnc(CNC(=O)c3ccc4c(c3)[C@](C)(C#N)COC4)c2)c1 [Compound 84]
80,> 1,> 1000,32,C[C@@]1(C#N)COCc2ccc(C(=O)NCc3cnc4ccc(-c5ccccc5)nc4c3)cc21 [Compound 106]
104,< 0.1,100 to 500,95,C[C@@]1(C#N)COCc2ccc(C(=O)NCc3cc4cc(-c5ccnc(N6CCC6)c5F)ccc4cn3)cc21 [Compound 272]
99,0.1 to 0.5,500 to 1000,76,C[C@@]1(C#N)COCc2ccc(C(=O)NCc3nccc(N4CCc5ccccc5C4)c3F)cc21 [Compound 66]
85,0.1 to 0.5,> 1000,43,C[C@@]1(C#N)COCc2ccc(C(=O)NCc3cc4c(cn3)CCN(c3ccccn3)C4)cc21 [Compound 286]
101,< 0.1,100 to 500,93,COc1ccccc1-c1ccc2cnc(CNC(=O)c3ccc4c(c3)[C@](C)(C#N)COC4)cc2n1 [Compound 111]
90,0.1 to 0.5,> 1000,53,C[C@@]1(C#N)COCc2ccc(C(=O)NCc3cc(N4CCc5ccccc5CC4)ccn3)cc21 [Compound 50]
